Source: patent US6342537B1, “Gel for treatment of skin diseases and for disinfection of the skin” (priority 1994, dated 2002)
Several values for one entry are separate records, joined by “and”; a condition that tells them apart may be missing. Equal entries are not always repeated. Where two headings read alike, the source gives them in different places.

Columns and labels:
[1] = system: herpes labialis eruptions; conditions: glass container; for symptom relief: two early phases
[2] = system: herpes labialis eruptions; experiment: Herpes labialis eruptions, prolonged contact with impregnated cotton (Example 23.2); assay type: in vivo, human; conditions: for symptom relief: intensive depot treatment
[3] = system: herpes labialis eruptions; conditions: in vivo
Excerpt: 23.4—Application of Gelled Alcohol
In this example some of the gelled compositions contained 1.6% by weight HPC and others contained 1.6% by weight EHEC.

[4] = system: herpes simplex virus (HSV) type 1; experiment: Inactivation of herpes simplex virus in infected MRC-5 cells by alcohols (Example 25); assay type: cell-based; conditions: for HSV - CPE after 44 hours with the detecting cell-layer: duplicate wells; for inactivation of herpes simplex virus (in words): HSV type 1 infected MRC-5 cells; on HSV - CPE after 44 hours with the detecting cell-layer: key: 0: no CPE; 1: a few; 2: several; 3: all cells infected with HSV
Description: Ethanol is an accepted disinfectant for viruses with an envelope. The purpose of this study was to measure the inactivating effect of “short-chained alcohols” on virus-infected cells.
Four 96 well plates with confluent MRC-5 cell were infected with herpes simplex virus (HSV) type 1. After appearance of 50% cytopathic effect (CPE), the culture medium was removed, and rows of 12 wells were treated with 25 μl/well of the alcohols or buffer after the following scheme: The first row with undiluted, and the following with 96%, 90%, 80%, 70%, 60% and 50% alcohol, respectively—all dilutions performed in buffer (PBS). To the last row was added buffer. After 2, 4, 8, 16 and 32 min, respectively, two wells in each row were emptied and the cells overlaid with PBS. The plate was then frozen at —80° C. Afterwards the wells were seeded with a detection layer of MRC-5 cells and the plates were placed at 37° C. for 44 hours. Virus surviving the treatment with alcohol was detected by the appearance of CPE, characteristic for HSV in the detection monolayer.

[5] = system: recurrent herpes genitalia, herpes febrilis (labialis); conditions: nonimmunocompromised patients; cited from earlier work
[6] = alcohol undiluted, 2 min with alcohol

CCO [Ethanol 99%]
eruption abortive effect [1]: clearly observed
eruption shortening effect [1]: likewise observed
symptom relief [1]: very strong symptom relief
abortive effect ([2]; early phase and vesicular phase): some abortive effect
symptom relief [2]: palliative effect on symptom relief
pain reaction on application in the ulceration phase [3]: slight pain of short duration

CCO [Ethanol 90%]
pain reaction on application in the ulceration phase [3]: less pain or shorter duration

CC(C)O [Isopropanol]
HSV - CPE after 44 hours with the detecting cell-layer ([4]; 50% alcohol in PBS, 2 min): 3 and 2
HSV - CPE after 44 hours with the detecting cell-layer ([4]; 50% alcohol in PBS, 4 min): 3 and 2
HSV - CPE after 44 hours with the detecting cell-layer ([4]; 50% alcohol in PBS, 8 min): 3
HSV - CPE after 44 hours with the detecting cell-layer ([4]; 50% alcohol in PBS, 16 min): 3 and 2
HSV - CPE after 44 hours with the detecting cell-layer ([4]; 50% alcohol in PBS, 32 min): 3
HSV - CPE after 44 hours with the detecting cell-layer ([4]; 60% alcohol in PBS, 2 min): 2
HSV - CPE after 44 hours with the detecting cell-layer ([4]; 60% alcohol in PBS, 4 min): 1
HSV - CPE after 44 hours with the detecting cell-layer ([4]; 60% alcohol in PBS, 8 min): 2 and 1
HSV - CPE after 44 hours with the detecting cell-layer ([4]; 60% alcohol in PBS, 16 min): 2 and 3
HSV - CPE after 44 hours with the detecting cell-layer ([4]; 60% alcohol in PBS, 32 min): 3
HSV - CPE after 44 hours with the detecting cell-layer ([4]; 70% alcohol in PBS, 2 min): 2
HSV - CPE after 44 hours with the detecting cell-layer ([4]; 70% alcohol in PBS, 4 min): 1
HSV - CPE after 44 hours with the detecting cell-layer ([4]; 70% alcohol in PBS, 8 min): 1 and 0
HSV - CPE after 44 hours with the detecting cell-layer ([4]; 70% alcohol in PBS, 16 min): 1
HSV - CPE after 44 hours with the detecting cell-layer ([4]; 70% alcohol in PBS, 32 min): 0 and 2
HSV - CPE after 44 hours with the detecting cell-layer ([4]; 80% alcohol in PBS, 2 min): 1
HSV - CPE after 44 hours with the detecting cell-layer ([4]; 80% alcohol in PBS, 4 min): 0 and 1
HSV - CPE after 44 hours with the detecting cell-layer ([4]; 80% alcohol in PBS, 8 min): 1
HSV - CPE after 44 hours with the detecting cell-layer ([4]; 80% alcohol in PBS, 16 min): 0 and 1
HSV - CPE after 44 hours with the detecting cell-layer ([4]; 80% alcohol in PBS, 32 min): 1 and 3
HSV - CPE after 44 hours with the detecting cell-layer ([4]; 90% alcohol in PBS, 2 min): 0 and 1
HSV - CPE after 44 hours with the detecting cell-layer ([4]; 90% alcohol in PBS, 4 min): 0
HSV - CPE after 44 hours with the detecting cell-layer ([4]; 90% alcohol in PBS, 8 min): 0
HSV - CPE after 44 hours with the detecting cell-layer ([4]; 90% alcohol in PBS, 16 min): 0
HSV - CPE after 44 hours with the detecting cell-layer ([4]; 90% alcohol in PBS, 32 min): 0
HSV - CPE after 44 hours with the detecting cell-layer ([4]; 96% alcohol in PBS, 2 min): 0
HSV - CPE after 44 hours with the detecting cell-layer ([4]; 96% alcohol in PBS, 4 min): 0
HSV - CPE after 44 hours with the detecting cell-layer ([4]; 96% alcohol in PBS, 8 min): 0
HSV - CPE after 44 hours with the detecting cell-layer ([4]; 96% alcohol in PBS, 16 min): 0
HSV - CPE after 44 hours with the detecting cell-layer ([4]; 96% alcohol in PBS, 32 min): 0
inactivation of herpes simplex virus (in words) [4]: able to inactivate herpes simplex virus even intracellular virus
HSV - CPE after 44 hours with the detecting cell-layer [4, 6]: 0
HSV - CPE after 44 hours with the detecting cell-layer ([4]; alcohol undiluted, 4 min): 0
HSV - CPE after 44 hours with the detecting cell-layer ([4]; alcohol undiluted, 8 min): 0
HSV - CPE after 44 hours with the detecting cell-layer ([4]; alcohol undiluted, 16 min): 0
HSV - CPE after 44 hours with the detecting cell-layer ([4]; alcohol undiluted, 32 min): 0

CCO [Ethanol 95%]
eruption abortive effect [1]: clearly observed
eruption shortening effect [1]: likewise observed
symptom relief [1]: very strong symptom relief
symptom relief [2]: palliative effect on symptom relief
pain reaction on application in the ulceration phase [3]: slight pain of short duration

Nc1nc2c(ncn2COCCO)c(=O)[nH]1 [Topical acyclovir, acyclovir]
effectiveness in recurrent herpes genitalia / labialis [5]: not effective

CO [Methanol]
HSV - CPE after 44 hours with the detecting cell-layer ([4]; 50% alcohol in PBS, 2 min): 1 and 0
HSV - CPE after 44 hours with the detecting cell-layer ([4]; 50% alcohol in PBS, 4 min): 1
HSV - CPE after 44 hours with the detecting cell-layer ([4]; 50% alcohol in PBS, 8 min): 1 and 2
HSV - CPE after 44 hours with the detecting cell-layer ([4]; 50% alcohol in PBS, 16 min): 2
HSV - CPE after 44 hours with the detecting cell-layer ([4]; 50% alcohol in PBS, 32 min): 1
HSV - CPE after 44 hours with the detecting cell-layer ([4]; 60% alcohol in PBS, 2 min): 1
HSV - CPE after 44 hours with the detecting cell-layer ([4]; 60% alcohol in PBS, 4 min): 0 and 1
HSV - CPE after 44 hours with the detecting cell-layer ([4]; 60% alcohol in PBS, 8 min): 1
HSV - CPE after 44 hours with the detecting cell-layer ([4]; 60% alcohol in PBS, 16 min): 0 and 1
HSV - CPE after 44 hours with the detecting cell-layer ([4]; 60% alcohol in PBS, 32 min): 1
HSV - CPE after 44 hours with the detecting cell-layer ([4]; 70% alcohol in PBS, 2 min): 1
HSV - CPE after 44 hours with the detecting cell-layer ([4]; 70% alcohol in PBS, 4 min): 1
HSV - CPE after 44 hours with the detecting cell-layer ([4]; 70% alcohol in PBS, 8 min): 1
HSV - CPE after 44 hours with the detecting cell-layer ([4]; 70% alcohol in PBS, 16 min): 1
HSV - CPE after 44 hours with the detecting cell-layer ([4]; 70% alcohol in PBS, 32 min): 0 and 1
HSV - CPE after 44 hours with the detecting cell-layer ([4]; 80% alcohol in PBS, 2 min): 1
HSV - CPE after 44 hours with the detecting cell-layer ([4]; 80% alcohol in PBS, 4 min): 0
HSV - CPE after 44 hours with the detecting cell-layer ([4]; 80% alcohol in PBS, 8 min): 1
HSV - CPE after 44 hours with the detecting cell-layer ([4]; 80% alcohol in PBS, 16 min): 0 and 1
HSV - CPE after 44 hours with the detecting cell-layer ([4]; 80% alcohol in PBS, 32 min): 1 and 0
HSV - CPE after 44 hours with the detecting cell-layer ([4]; 90% alcohol in PBS, 2 min): 0
HSV - CPE after 44 hours with the detecting cell-layer ([4]; 90% alcohol in PBS, 4 min): 0
HSV - CPE after 44 hours with the detecting cell-layer ([4]; 90% alcohol in PBS, 8 min): 0 and 1
HSV - CPE after 44 hours with the detecting cell-layer ([4]; 90% alcohol in PBS, 16 min): 1
HSV - CPE after 44 hours with the detecting cell-layer ([4]; 90% alcohol in PBS, 32 min): 1 and 0
HSV - CPE after 44 hours with the detecting cell-layer ([4]; 96% alcohol in PBS, 2 min): 0
HSV - CPE after 44 hours with the detecting cell-layer ([4]; 96% alcohol in PBS, 4 min): 0
HSV - CPE after 44 hours with the detecting cell-layer ([4]; 96% alcohol in PBS, 8 min): 0
HSV - CPE after 44 hours with the detecting cell-layer ([4]; 96% alcohol in PBS, 16 min): 0 and 1
HSV - CPE after 44 hours with the detecting cell-layer ([4]; 96% alcohol in PBS, 32 min): 1 and 0
inactivation of herpes simplex virus (in words) [4]: able to inactivate herpes simplex virus even intracellular virus
HSV - CPE after 44 hours with the detecting cell-layer [4, 6]: 0
HSV - CPE after 44 hours with the detecting cell-layer ([4]; alcohol undiluted, 4 min): 0
HSV - CPE after 44 hours with the detecting cell-layer ([4]; alcohol undiluted, 8 min): 0
HSV - CPE after 44 hours with the detecting cell-layer ([4]; alcohol undiluted, 16 min): 0
HSV - CPE after 44 hours with the detecting cell-layer ([4]; alcohol undiluted, 32 min): 0
